Laboratory results from article PMC10185535, “Structural insights into cardiolipin replacement by phosphatidylglycerol in a cardiolipin-lacking yeast respiratory supercomplex” (Nature Communications, 2023).
One block for each molecule: values may come before it.

Assays:
[1] = test system: T1, CRD1∆ SC (III2IV1 trimeric respiratory supercomplex); assay: cryo-EM structure […] Å; assay type: binding, Saccharomyces cerevisiae; details: Qi sites of complex III only (Cob); endogenous
T1 construct: gene COB; native trimer (complex III dimer plus one complex IV) from cardiolipin-lacking strain, Cox4 with C-terminal His10, subunit Qcr10 lost; digitonin, His-Trap and SEC; with Cytochrome b-c1 complex subunit 1, mitochondrial; Cytochrome b-c1 complex subunit 2, mitochondrial; Cytochrome b-c1 complex subunit 6, mitochondrial; Cytochrome b-c1 complex subunit 7, mitochondrial; Cytochrome b-c1 complex subunit 9, mitochondrial; Cytochrome c oxidase subunit 2; Cytochrome c oxidase subunit 3; Cytochrome c oxidase subunit 4, mitochondrial; Cytochrome c oxidase subunit 6, mitochondrial; Cytochrome c oxidase subunit 7, mitochondrial; Cytochrome c oxidase subunit 8, mitochondrial; Cytochrome c oxidase subunit 9, mitochondrial; Cytochrome c oxidase subunit 12, mitochondrial; Cytochrome c oxidase subunit 13, mitochondrial; Cytochrome c oxidase subunit 26, mitochondrial

[2] = test system: T2, WT SC (IV1III2IV1; III2IV2 tetrameric respiratory supercomplex); assay: cryo-EM structure […] Å; assay type: binding, Saccharomyces cerevisiae; details: Qi and Qo sites of complex III; Cob, Rip1 His181 (Qo); copurified endogenous
T2 construct: gene COB; native tetramer (complex III dimer flanked by two complex IV), digitonin extract of mitochondria, FoF1-ATPase removed, sucrose gradient; no tag on the supercomplex; with Cytochrome b-c1 complex subunit 2, mitochondrial; Cytochrome b-c1 complex subunit 6, mitochondrial; Cytochrome b-c1 complex subunit 9, mitochondrial; Cytochrome b-c1 complex subunit 10, mitochondrial; Cytochrome c oxidase subunit 2; Cytochrome c oxidase subunit 3; Cytochrome c oxidase subunit 4, mitochondrial; Cytochrome c oxidase subunit 5A, mitochondrial; Cytochrome c oxidase subunit 6, mitochondrial; Cytochrome c oxidase subunit 7, mitochondrial; Cytochrome c oxidase subunit 8, mitochondrial; Cytochrome c oxidase subunit 9, mitochondrial; Cytochrome c oxidase subunit 12, mitochondrial; Cytochrome c oxidase subunit 13, mitochondrial; Cytochrome c oxidase subunit 26, mitochondrial

[3] = test system: T1, CRD1∆ SC (III2IV1 trimeric respiratory supercomplex); assay: oxygen consumption, Oroboros respirometry; assay type: biochemical, Saccharomyces cerevisiae; details: 100 μM DQH2, 50 μM cytochrome c, 0.05% digitonin, pH 7.1, 30 °C
[4] = test system: T2, WT SC (IV1III2IV1; III2IV2 tetrameric respiratory supercomplex); assay: oxygen consumption, Oroboros respirometry; assay type: biochemical, Saccharomyces cerevisiae; details: 100 μM DQH2, 50 μM cytochrome c, 0.05% digitonin, pH 7.1, 30 °C
[5] = target: complex III2 (CIII) of the trimeric supercomplex (III2IV1) from the cardiolipin-lacking CRD1∆ S. cerevisiae mutant (S. cerevisiae (endogenous in strain YEB100)) (UniProt P07256); assay: cryo-EM structure; trimeric SC (III2IV1) from the CRD1∆ strain, purified by His-Trap (Cox4-His10) and Superose 6 in 0.05% digitonin; Titan Krios, with added 30° tilt data; 3.3 Å
[6] = target: complex III2 (CIII, dimer of cytochrome bc1) of the wild type S. cerevisiae respiratory supercomplex (S. cerevisiae (endogenous in strain USY00b)) (UniProt P07256); assay: cryo-EM structure; WT tetrameric SC (IV1III2IV1) purified by sucrose gradient in digitonin, diluted 1:9 in 15 mM Tris-HCl pH 7.2, 20 mM KCl; Titan Krios 300 kV; 3.2 Å
[7] = target: T3, Cor1, subunit of CIII (S. cerevisiae (endogenous in strain …, UniProt P07256 27-457)); assay: as above; details: both partners purified
T3 construct: Cor1, subunit of complex III, S. cerevisiae; source: endogenous, mitochondria of S. cerevisiae strain USY00b; within the purified III2IV2 SC (sucrose gradient)
T3 sequence (looked up): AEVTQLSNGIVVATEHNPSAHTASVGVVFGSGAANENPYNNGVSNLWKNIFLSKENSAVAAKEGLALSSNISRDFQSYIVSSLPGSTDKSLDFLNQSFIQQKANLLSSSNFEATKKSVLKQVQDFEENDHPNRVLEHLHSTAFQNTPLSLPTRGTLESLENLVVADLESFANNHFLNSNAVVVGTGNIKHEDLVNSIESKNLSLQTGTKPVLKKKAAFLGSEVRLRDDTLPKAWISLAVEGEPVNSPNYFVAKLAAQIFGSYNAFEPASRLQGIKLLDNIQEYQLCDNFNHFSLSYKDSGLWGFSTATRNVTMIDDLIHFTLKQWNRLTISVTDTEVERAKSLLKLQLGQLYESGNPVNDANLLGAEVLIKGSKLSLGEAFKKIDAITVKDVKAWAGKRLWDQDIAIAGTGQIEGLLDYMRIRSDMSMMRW

Molecule: COC1=C(OC)C(=O)C(C/C=C(\C)CC/C=C(\C)CC/C=C(\C)CC/C=C(\C)CC/C=C(\C)CCC=C(C)C)=C(C)C1=O [UQ6]
- cryo-EM structure 3.3 Å [1]: Densities for UQ6 were found only at Qi sites
- cryo-EM structure 3.2 Å [2]: four UQ6 ligands were placed into the map, two in each monomer of CIII

Molecule: CCCCCCCCCCc1c(C)c(O)c(OC)c(OC)c1O [reduced decylubiquinone]
- oxygen consumption, Oroboros respirometry [3]: Due to limited amounts of the ∆CRD1 SC, only one determination was possible
- oxygen consumption, Oroboros respirometry [4]: purified WT SC supplemented with Cyt c and reduced decylubiquinone (DQH2) also displayed similar activity

- stoichiometry N [5]: 2
Molecule: complex III2 (CIII) of the trimeric supercomplex (III2IV1) from the cardiolipin-lacking CRD1∆ S. cerevisiae mutant (from UniProt P07256 27-457; P00163 1-385; P07143 62-309; P08067 31-215; P00128 1-127; P08525 1-94; P22289 1-66)

- stoichiometry N [6]: 2
Molecule: complex III2 (CIII, dimer of cytochrome bc1) of the wild type S. cerevisiae respiratory supercomplex (from UniProt P07256 27-457; P00163 1-385; P07143 62-309; P08067 31-215; P00128 1-127; P08525 1-94; P22289 1-66; P37299 1-77)

- binding result [7]: binds
B1: Cox5a, subunit of CIV (natural protein, UniProt P00424 21-153, looked up)
chain: AQTHALSNAAVMDLQSRWENMPSTEQQDIVSKLSERQKLPWAQLTEPEKQAVWYISYGEWGPRRPVLNKGDSSFIAKGVAAGLLFSVGLFAVVRMAGGQDAKTMNKEWQLKSDEYLKSKNANPWGGYSQVQSK
notes: Cox5a, subunit of complex IV, S. cerevisiae; source: endogenous, mitochondria of S. cerevisiae strain USY00b; within the purified III2IV2 SC (sucrose gradient)
